Broadly, the EC50 is the midpoint of the concentration-response curve.

Experiment [1] relates to NQO1 specific enzyme activity in BEAS-2B cells. Description: BEAS-2B NQO1 MTT Assay. Conditions: Homo sapiens; NQO1 specific activity induction, BEAS-2B cells, 48 hours; read-out: EC50. Format: cell-based. The essentials:
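BEAS-2B cells plated overnight, treated with compound for 48 h at 37° C, then lysed; NQO1 activity measured kinetically by MTT cocktail at 570 nm over 30 min, with lysate aliquot for Cell Titer Glo. pEC50 from 3-parameter fit of ΔOD/min versus log concentration.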

In experiment [2] the target is T1, full length Keap1 protein / full length NRF2 protein (Homo sapiens, UniProt Q14145).
T1 construct: full length NRF2 protein and full length Keap1 protein (Keap1 exists a dimer) are used; His
The experiment in a line: NRF2-Keap1 TR-FRET Low Protein Assay. Format: binding. Summed up: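 Compounds were preincubated with Keap1 FlagHis (1.25 nM) for 2.25 h at 37° C, then biotin-NRF2 (2.5 nM) was added for 1.25 h at 4° C in pH 8.0 Tris buffer with DTT/CHAPS. After 1 h with Eu-streptavidin/anti-Flag APC, the 665/615 nm ratio was normalized to controls and pIC50 fitted by four-parameter equation.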
(In TR-FRET formats the signal depends on donor and acceptor labels being close together.)

T1 sequence (Q14145 whole entry): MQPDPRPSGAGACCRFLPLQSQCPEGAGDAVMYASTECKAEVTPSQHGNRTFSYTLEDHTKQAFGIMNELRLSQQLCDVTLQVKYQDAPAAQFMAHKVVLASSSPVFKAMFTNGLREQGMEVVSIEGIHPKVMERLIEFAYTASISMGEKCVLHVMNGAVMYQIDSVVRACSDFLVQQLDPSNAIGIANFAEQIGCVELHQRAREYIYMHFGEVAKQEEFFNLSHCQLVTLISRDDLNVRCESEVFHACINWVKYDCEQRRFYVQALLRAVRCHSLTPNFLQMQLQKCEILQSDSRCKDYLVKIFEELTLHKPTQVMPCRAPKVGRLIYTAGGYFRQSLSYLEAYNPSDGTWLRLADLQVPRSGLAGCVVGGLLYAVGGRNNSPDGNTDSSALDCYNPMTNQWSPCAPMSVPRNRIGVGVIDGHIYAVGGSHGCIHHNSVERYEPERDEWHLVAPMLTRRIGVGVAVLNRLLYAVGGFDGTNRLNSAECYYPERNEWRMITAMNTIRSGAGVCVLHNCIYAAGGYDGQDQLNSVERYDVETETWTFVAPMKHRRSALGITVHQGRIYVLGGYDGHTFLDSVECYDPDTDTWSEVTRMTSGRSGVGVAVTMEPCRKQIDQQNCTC

As for `C[C@H]1Cc2cc(C(F)(F)F)ccc2S(=O)(=O)N(Cc2cccc(-n3ncc(C(=O)O)c3[C@@H]3C[C@H]3c3cnn(C)c3)c2)C1` [Example 30, 1-(3-(((S)-4-Methyl-1,1-dioxido-7-(trifluoromethyl)-4,5-dihydrobenzo[f][1,2]thiazepin-2(3H)-yl)methyl)phenyl)-5-(trans-2-(1-methyl-1H-pyrazol-4-yl)cyclopropyl)-1H-pyrazole-4-carboxylic acid], the half-maximal effective concentration (EC50) in experiment [1] was in the range of 1 to 10 µM; in experiment [2], 0.1 to 1 µM.

`CC[C@@H]1CN(Cc2cccc(-n3ncc(C(=O)O)c3[C@@H]3C[C@H]3c3cnn(C)c3)c2)S(=O)(=O)c2ccccc2O1` [Example 31, 1-(3-(((R)-4-ethyl-1,1-dioxido-3,4-dihydro-2H-benzo[b][1,4,5]oxathiazepin-2-yl)methyl)-phenyl)-5-(trans-2-(1-methyl-1H-pyrazol-4-yl)cyclopropyl)-1H-pyrazole-4-carboxylic acid]: the EC50 in experiment [1] and in experiment [2] was 1 to 10 µM in each case.

Turning to `C[C@H]1Cc2ccccc2S(=O)(=O)N(Cc2cccc(-n3ncc(C(=O)O)c3[C@@H]3C[C@H]3c3cnn(C)c3)c2)C1` [Example 32, 1-(3-(((S)-4-methyl-1,1-dioxido-4,5-dihydrobenzo[f][1,2]thiazepin-2(3H)-yl)methyl)-phenyl)-5-(trans-2-(1-methyl-1H-pyrazol-4-yl)cyclopropyl)-1H-pyrazole-4-carboxylic acid], the half-maximal effective concentration (EC50) in experiment [1] and in experiment [2] was 1 to 10 µM throughout.

In the case of `C[C@@H]1Cc2cc(C(F)(F)F)ccc2S(=O)(=O)N(Cc2cccc(-n3ncc(C(=O)O)c3[C@@H]3C[C@H]3c3cnn(C)c3)c2)C1` [Example 33, 1-(3-(((R)-4-methyl-1,1-dioxido-7-(trifluoromethyl)-4,5-dihydro-benzo[f][1,2]thiazepin-2(3H)-yl)methyl)phenyl)-5-(trans-2-(1-methyl-1H-pyrazol-4-yl)cyclopropyl)-1H-pyrazole-4-carboxylic acid], the concentration giving a half-maximal response (EC50) lay in the range of 1 to 10 µM in experiment [1] and 10 to 100 µM in experiment [2].

Values taken from patent publication US20200071310A1, “N-ARYL PYRAZOLES AS NRF2 REGULATORS” (GLAXOSMITHKLINE INTELLECTUAL PROPERTY DEVELOPMENT LIMITED, priority 2016, published 2020).
